Like-named read-outs stand apart in the source and are kept apart here. Non-standard residues stand in square brackets, D forms with d. Residues, ends and D or L forms follow the SMILES beside them. *: point of attachment. X1 = CC(=O)O[C@@]12CO[C@@H]1C[C@H](O)[C@@]1(C)C(=O)[C@H](O)C3=C(C)[C@@H](OC(=O)[C@H](OC(=O)CCC(=O)*)[C@@H](NC(=O)OC(C)(C)C)c4ccccc4)C[C@@](O)([C@@H](OC(=O)c4ccccc4)[C@H]21)C3(C)C; Nle = CCCC[C@H](N)C(=O)O
Key:
[1] = assessment of neutropenia in treated mice; format: in vivo; conditions: athymic mice; for neutrophil counts: docetaxel 15 mg/kg/week or TH1902 at equivalent dose, up to 6 treatments, FIG. 11
Description: 15 young adult, female, homozygous athymic mice (Crl:CD1-Foxn1^nu, 4-6 weeks of age) received 6 consecutive treatments of docetaxel or TH1902 (at equivalent dose of docetaxel (15 mg/kg/week)). […] This level continued to decrease as the administration of docetaxel continued.

[2] = test system: HT29 colorectal xenograft tumors; experiment: colorectal cancer xenograft model (HT-29); format: in vivo, mice; conditions: low and high doses, −20% endpoint limit
Description: (§1) Briefly, stock solution of formulated TH1902 was prepared as sterile aliquots of 10 mg/mL frozen liquid solutions (see below). On the day of animal dosing, frozen aliquots were thawed 30 minutes at room temperature then diluted with sterile 5% dextrose injection, USP (D5W) to the desired concentration for injection (i.e. typically 5.4 or 1.35 mg/mL).
(§2) TH1902 frozen stock solution were prepared as follow: • 1. Make the TH1902 diluent solution (Diluent) the day before the solubilization. Diluent: 10% Tween™ 80 in D5W USP (w/v) with 0.04% of formic acid (v/v), ˜pH 2.9. Leave solution at room temperature until TH1902 solubilization (next day). • 2. Weigh 60 mg of TH1902 API into a 14 ml glass vial with screw caps. Adjust TH1902 weights to reflect TH1902 purity according to the certificate of analysis. • 3. Add 90% of diluent solution needed to prepare the TH1902 10 mg/ml stock solution. • 4. Swirl the content of the bottle to form opaque mixture and place a stir bar. • 5. Place bottle in the heating apparatus (glass water bath and mount for holding vial with thermometer and stir bar on a digital heating plate). Begin mixing the content of the bottle. • 6. […] Transfer the formulation to a graduated glass cylinder and bring to final calculated volume with diluent solution. • 9. […] Perform UPLC analysis against a TH1902 standard curve for quantification and purity assessment. • 11. […]

[3] = test system: MDA-MB-231 breast cancer cells; experiment: cells; format: cell-based, human; conditions: read-out: IC50 value, anti-proliferative activity
Description: In vitro testing of the TH19P01 peptide and the TH1902 conjugate compound was conducted.

SK-MEL-28 xenografts = format: in vivo, mice
Description: as §1
as §2, with “6. Gradually increase the temperature of water bath in increments of 5° C. every 30 minutes until mixture turns clear (temperature ramping up to 45° C. over a period of time of about 165 to 180 minutes).” for “6.”
Two of the sortilin-expressing melanoma cancer cell lines (SK-MEL-28 and B16-F10) were used to monitor whether TH1902 impeded the growth of the cells when administered at 35 mg/kg/week, versus unconjugated docetaxel at 15 mg/kg/week. This is the maximum tolerated dose (MTD) for free docetaxel, and the TH1902 formulation contains the equivalent quantity of docetaxel within this peptide drug conjugate. […] This difference was quantified when the control group reached the tumor volume endpoint at day-42. […]

[4] = test system: murine B16-F10 cancer cells; experiment: syngeneic melanoma tumor model (B16-F10); format: in vivo, mice; conditions: for body weights, dose-response study: equivalent doses, −20% endpoint limit
Description: as §1
TH1902 frozen stock solution were prepared as follow: • 1. Make the TH1902 diluent solution (Diluent) the day before the solubilization. Diluent: 10% Tween™ 80 in D5W USP (w/v) with 0.04% of formic acid (v/v), ˜pH 2.9. Leave solution at room temperature until TH1902 solubilization (next day). • 2. Weigh 60 mg of TH1902 API into a 14 ml glass vial with screw caps. Adjust TH1902 weights to reflect TH1902 purity according to the certificate of analysis. • 3. Add 90% of diluent solution needed to prepare the TH1902 10 mg/ml stock solution. • 4. Swirl the content of the bottle to form opaque mixture and place a stir bar. • 5. Place bottle in the heating apparatus (glass water bath and mount for holding vial with thermometer and stir bar on a digital heating plate). Begin mixing the content of the bottle. • 6. Gradually increase the temperature of water bath in increments of 5° C. every 30 minutes until mixture turns clear (temperature ramping up to 45° C. over a period of time of about 165 to 180 minutes). Record water bath temperature every 15 minutes. • 7. Leave at room temperature for 30 minutes with gentle swirling (cool down). Measure pH. Adjust pH to 4.3±0.2 using dilute NaOH (0.1 N or less). • 8. Transfer the formulation to a graduated glass cylinder and bring to final calculated volume with diluent solution. • 9. Transfer back into the 14 ml glass vial and mix slowly for 5 minutes at room temperature. Measure pH. pH should be 4.3±0.2. • 10. Filter sterilize with a PES 0.22 μm membrane into a new and sterile 14 ml glass vial. Check the pH again. Perform UPLC analysis against a TH1902 standard curve for quantification and purity assessment. • 11. Freeze aliquots of TH1902 stock solution at −80° C. (0.5 mL per aliquot in 4 mL glass vials).
For the syngeneic B16-F10 melanoma tumor model, normal immunocompetent mice were implanted subcutaneously with murine B16-F10 cancer cells. […]
For FIG. 28A, immunocompetent mice bearing B16-F10 xenografts were repeatedly injected intravenously (arrows indicate injection days) with vehicle or with vehicle containing equivalent of docetaxel (15 mg/kg/week) or TH1902 (35 mg/kg/week). In FIG. 28B, the effects of TH1902 and docetaxel on tumor progression at day-14 are presented by subtracting the initial tumor volumes at day-0 to the tumor volumes measured at day-14 when tumors of the vehicle group reached the endpoint limits. […]

[5] = mouse plasma levels after IV bolus injection; format: in vivo, mice
Description: In addition, TH1902 and docetaxel mouse plasma levels were assessed in TH1902-treated mice.

| SMILES | weight loss ([1]; TH1902 at equivalent dose of docetaxel 15 mg/kg/week) | neutrophil counts [1] | body weights [2] | IC50 [3] [nM] | body weight of mice (SK-MEL-28 xenografts; TH1902 35 mg/kg/week, docetaxel 15 mg/kg/week) | mouse body weights, first study ([4]; TH1902 35 mg/kg/week) | body weights, dose-response study [4] | concentration of docetaxel released from TH1902 in plasma ([5]; mouse plasma, IV bolus injection 50 mg/kg TH1902) | plasma concentration of TH1902 ([5]; mouse plasma, IV bolus injection 50 mg/kg TH1902, FIG. 12) | IC50 ([3]; Homo sapiens) [nM] | tumor growth / tumor volumes (SK-MEL-28 xenografts; TH1902 35 mg/kg/week, docetaxel 15 mg/kg/week, endpoint day-42, FIG. 27) | body weight of mice (SK-MEL-28 xenografts; mouse, in vivo) | tumor growth at the highest dose, dose-response study ([4]; TH1902 23 mg/kg/bi-weekly, docetaxel 10 mg/kg/bi-weekly) | docetaxel concentration that can be measured in plasma ([5]; administered as a free drug) |
| --- | --- | --- | --- | --- | --- | --- | --- | --- | --- | --- | --- | --- | --- | --- |
| CCCC[C@H](NC(=O)[C@H](CC(N)=O)NC(=O)[C@H](CCCNC(=N)N)NC(=O)[C@@H](NC(=O)CNC(=O)[C@H](C)NC(=O)[C@H](CCCCNC(=O)CCC(=O)O[C@@H](C(=O)O[C@H]1C[C@@]2(O)[C@@H](OC(=O)c3ccccc3)[C@@H]3[C@]4(OC(C)=O)CO[C@@H]4C[C@H](O)[C@@]3(C)C(=O)[C@H](O)C(=C1C)C2(C)C)[C@@H](NC(=O)OC(C)(C)C)c1ccccc1)NC(=O)[C@H](C)NC(=O)[C@H](CCCNC(=N)N)NC(=O)[C@@H](NC(=O)CNC(C)=O)C(C)C)C(C)C)C(=O)N[C@@H](Cc1ccccc1)C(=O)N[C@@H](CCCCNC(=O)CCC(=O)O[C@@H](C(=O)O[C@H]1C[C@@]2(O)[C@@H](OC(=O)c3ccccc3)[C@@H]3[C@]4(OC(C)=O)CO[C@@H]4C[C@H](O)[C@@]3(C)C(=O)[C@H](O)C(=C1C)C2(C)C)[C@@H](NC(=O)OC(C)(C)C)c1ccccc1)C(=O)N[C@@H](CO)C(=O)N[C@@H](CCC(=O)O)C(=O)N[C@@H](CO)C(=O)N[C@@H](Cc1ccc(O)cc1)C(=O)O [TH1902, Acetyl-GVRAK(docetaxel)AGVRN(Nle)FK(docetaxel)SESY] (Ac-GVRAK(X1)AGVRN[Nle]FK(X1)SESY-OH) | no weight loss was observed | no apparent change in the neutrophil counts | within the acceptable range | 0.19 ± 0.09 | remained within −20% endpoint limit | without having an impact on mouse body weights | within the acceptable range | very low concentration | high plasma concentration |  |  |  |  |  |
| CC(=O)O[C@@]12CO[C@@H]1C[C@H](O)[C@@]1(C)C(=O)[C@H](O)C3=C(C)[C@@H](OC(=O)[C@H](O)[C@@H](NC(=O)OC(C)(C)C)c4ccccc4)C[C@@](O)([C@@H](OC(=O)c4ccccc4)[C@H]21)C3(C)C [docetaxel] |  | sharp drop in neutrophil levels | within the acceptable range |  |  |  | within the acceptable range |  |  | 0.56 ± 0.19 | inhibited tumor growth | remained within −20% endpoint limit | only a minor impact on tumor growth | 15-20% |

Reference: US20230036041A1, “SORTILIN BINDING CONJUGATE COMPOUNDS, COMPOSITIONS AND USES THEREOF FOR TREATING CANCER” (THERATECHNOLOGIES INC., priority 2019, published 2023)
